Source: patent US4604239A, “Antibiotics” (Eli Lilly and Company, priority 1985, dated 1986)
In brackets after ≈: the same amount, converted by molar mass. Where two headings read alike, the source gives them in different places.

Assays:
[1] = tested on: Bacteroides vulgatis; test: agar-dilution MIC; format: cell-based; conditions: Bacteroides vulgatis 1211; Table 14
[2] = tested on: Peptococcus prevoti; test: agar-dilution MIC; format: cell-based
[3] = tested on: Clostridium difficile; format: cell-based
[4] = electrometric titration; format: physicochemical; conditions: electrometric titration in 66% dimethylformamide in water
Description: Antibiotic A41030 factor A is a white, crystalline solid.

[5] = tested on: Clostridium septicum; test: agar-dilution MIC; format: cell-based; conditions: Clostridium septicum 1128; Table 14
[6] = tested on: Bacteroides thetaiotaomicron; format: cell-based
Description: (§1) The agar-dilution procedure described by the International Collaborative study (ICS) group was used to determine the minimum inhibitory concentrations (MIC's).

[7] = tested on: Staphylococcus aureus; test: agar-dilution MIC; format: cell-based
[8] = solubility; format: physicochemical
[9] = tested on: Peptococcus magnus; test: agar-dilution MIC; format: cell-based; conditions: Pc. magnus 1477; Table 15
Method: (§2) The MIC values were determined by the agar-dilution method, and are recorded in Table 15, which follows.

[10] = tested on: Peptococcus prevoti; test: agar-dilution MIC; format: cell-based; conditions: Table 15
Method: as §2

[11] = tested on: Peptostreptococcus intermedius; test: agar-dilution MIC; format: cell-based
[12] = tested on: Staphylococcus epidermidis; test: agar-dilution MIC; format: cell-based
Description: as §1

[13] = tested on: Streptococcus sp. (Group D); test: agar-dilution MIC; format: cell-based
Description: as §1

For NC1C(=O)NC2Cc3ccc(c(Cl)c3)Oc3cc4cc(c3O)Oc3ccc(cc3Cl)C(O)C3NC(=O)C(NC(=O)C4NC(=O)C(NC2=O)c2cc(O)cc(c2)Oc2cc1ccc2O)c1cc(Cl)c(O)c(c1)-c1c(O)cc(O)cc1C(C(=O)O)NC3=O (centres unmarked) [A41030 factor A], the MIC [1] was 32 µg/mL (≈ 25.9 µM), the MIC ([2]; Pc. prevoti 1281, Table 15) was 0.5 µg/mL (≈ 0.405 µM) and the MIC ([2]; Peptococcus prevoti 1281, Table 14) was at most 0.25 µg/mL. It also gave an MIC ([3]; Clostridium difficile 78, Table 16) of 1.0 µg/mL (≈ 0.811 µM), an MIC ([3]; Clostridium difficile 107B, Table 16) of 1.0 µg/mL (≈ 0.811 µM) and an MIC ([3]; Clostridium difficile 111F, Table 16) of 1.0 µg/mL (≈ 0.811 µM). The MIC ([3]; Clostridium difficile 1153, Table 16) was 1.0 µg/mL (≈ 0.811 µM), the MIC ([3]; Clostridium difficile 2634, Table 16) was 1.0 µg/mL (≈ 0.811 µM) and the MIC ([3]; Clostridium difficile 2994, Table 14) was 32 µg/mL (≈ 25.9 µM). For the same compound, the MIC ([3]; Clostridium difficile 3424-5B, Table 16) was 1.0 µg/mL (≈ 0.811 µM), the MIC ([3]; Clostridium difficile 3816, Table 16) was 1.0 µg/mL (≈ 0.811 µM) and the MIC ([3]; Clostridium difficile 3950D, Table 16) was 1.0 µg/mL (≈ 0.811 µM). For the same compound, the MIC ([3]; Clostridium difficile 6890, Table 16) was 1.0 µg/mL (≈ 0.811 µM), the MIC ([3]; Clostridium difficile 8484, Table 16) was 1.0 µg/mL (≈ 0.811 µM) and the MIC ([3]; Clostridium difficile A-194, Table 16) was 1.0 µg/mL (≈ 0.811 µM). The MIC ([3]; Clostridium difficile A-195, Table 16) was 1.0 µg/mL (≈ 0.811 µM), the MIC ([3]; Clostridium difficile A-196, Table 16) was 1.0 µg/mL (≈ 0.811 µM) and the MIC ([3]; Clostridium difficile A-279, Table 16) was 1.0 µg/mL (≈ 0.811 µM). It also gave an MIC ([3]; Clostridium difficile A-280, Table 16) of 1.0 µg/mL (≈ 0.811 µM), an MIC ([3]; Clostridium difficile A-281, Table 16) of 1.0 µg/mL (≈ 0.811 µM) and an MIC ([3]; Clostridium difficile WAL-2112, Table 16) of 1.0 µg/mL (≈ 0.811 µM). The MIC ([3]; Clostridium difficile WAL-3657, Table 16) was 1.0 µg/mL (≈ 0.811 µM), the MIC ([3]; Clostridium difficile WAL-4268, Table 16) was 1.0 µg/mL (≈ 0.811 µM) and the “possibly additional pKa's” value [4] was over 10.5. The MIC [5] was 2 µg/mL (≈ 1.62 µM), the MIC ([6]; B. thetaiotaomicron 1438, 24-hour, Table 12) was 64 µg/mL (≈ 51.9 µM) and the MIC ([6]; Bacteroides thetaiotaomicron 1438, Table 14) was 64 µg/mL (≈ 51.9 µM). The MIC ([7]; Staphylococcus aureus 3055, Table 11) was 0.13 µg/mL (≈ 0.105 µM), the MIC ([7]; Staphylococcus aureus 3055, end point after 24 hours, Table 18) was 0.06 µg/mL (≈ 0.0486 µM) and the MIC ([7]; Staphylococcus aureus 3074, Penicillin-resistant, Table 11) was at most 0.06 µg/mL. It also gave an MIC ([7]; Staphylococcus aureus 3131 (**Penicillin, methicillin, and erythromycin), Table 11) of at most 0.06 µg/mL, an MIC ([7]; Staphylococcus aureus 3134 (**Penicillin, methicillin, and erythromycin), Table 11) of at most 0.06 µg/mL and an MIC ([7]; Staphylococcus aureus H43, Penicillin-resistant, Table 11) of at most 0.06 µg/mL. For the same compound, the MIC ([7]; Staphylococcus aureus H290, Table 11) was at most 0.06 µg/mL, the MIC ([7]; Staphylococcus aureus S13E, Table 17) was 0.25 µg/mL (≈ 0.203 µM) and the MIC ([7]; Staphylococcus aureus V57, Penicillin-resistant, Table 11) was at most 0.06 µg/mL. For the same compound, the MIC ([7]; Staphylococcus aureus V138, end point after 24 hours, Table 18) was 0.06 µg/mL (≈ 0.0486 µM), the “solubility (solvents)” value [8] was “soluble in alcohol-water mixtures, in dimethylsulfoxide, in dimethylformamide, in dimethylsulfoxide-water mixtures, in dimethylformamide-water mixtures, in dilute aqueous acid, and in dilute aqueous base” and the MIC [9] was 0.5 µg/mL (≈ 0.405 µM). The MIC ([10]; Pc. prevoti 1293) was 1.0 µg/mL (≈ 0.811 µM), the MIC ([10]; Pc. prevoti 1407) was 1.0 µg/mL (≈ 0.811 µM) and the MIC ([11]; Peptostreptococcus intermedius 1264, Table 14) was 1.0 µg/mL (≈ 0.811 µM). It also gave an MIC ([11]; Ps. intermedius 1264, Table 15) of at most 0.03 µg/mL, an MIC ([11]; Ps. intermedius 1524, Table 15) of 0.5 µg/mL (≈ 0.405 µM) and an MIC ([11]; Ps. intermedius 1624, Table 15) of 1.0 µg/mL (≈ 0.811 µM). For the same compound, the MIC ([12]; Staphylococcus epidermidis 219, end point after 24 hours, Table 18) was 0.06 µg/mL (≈ 0.0486 µM), the MIC ([12]; Staphylococcus epidermidis 269, end point after 24 hours, Table 18) was 0.06 µg/mL (≈ 0.0486 µM) and the MIC ([12]; Staphylococcus epidermidis 270, end point after 24 hours, Table 18) was 0.06 µg/mL (≈ 0.0486 µM). It also gave an MIC ([12]; Staphylococcus epidermidis 285, end point after 24 hours, Table 18) of 0.06 µg/mL (≈ 0.0486 µM), an MIC ([12]; Staphylococcus epidermidis Britton, Table 11) of 0.13 µg/mL (≈ 0.105 µM) and an MIC ([12]; Staphylococcus epidermidis EPI2, Table 17) of 1 µg/mL (≈ 0.811 µM). For the same compound, the MIC ([12]; Staphylococcus epidermidis Litton, Table 11) was 0.13 µg/mL (≈ 0.105 µM), the MIC ([12]; Staphylococcus epidermidis Mencher, Table 11) was at most 0.06 µg/mL and the MIC ([12]; Staphylococcus epidermidis Mobley, Table 11) was at most 0.06 µg/mL. The MIC ([13]; Streptococcus sp. (Group D) 238, Table 11) was 0.25 µg/mL (≈ 0.203 µM), the MIC ([13]; Streptococcus sp. (Group D) 282, Table 11) was 0.25 µg/mL (≈ 0.203 µM) and the MIC ([13]; Streptococcus sp. (Group D) 9901, Table 11) was 0.25 µg/mL (≈ 0.203 µM). The MIC ([13]; Streptococcus sp. (Group D) 12253F, Table 11) was 0.25 µg/mL (≈ 0.203 µM), the MIC ([13]; Streptococcus sp. (Group D) Guze, Table 11) was 0.25 µg/mL (≈ 0.203 µM) and the MIC ([13]; Streptococcus sp. Group D 2041, end point after 24 hours, Table 18) was 0.5 µg/mL (≈ 0.405 µM). The MIC ([13]; Streptococcus sp. Group D 2058, end point after 24 hours, Table 18) was 0.5 µg/mL (≈ 0.405 µM), the MIC ([13]; Streptococcus sp. Group D 8043, end point after 24 hours, Table 18) was 0.25 µg/mL (≈ 0.203 µM) and the MIC ([13]; Streptococcus sp. Group D 9901, end point after 24 hours, Table 18) was 1 µg/mL (≈ 0.811 µM). The MIC ([13]; Streptococcus sp. Group D 9960, Table 17) was 2 µg/mL (≈ 1.62 µM), the MIC ([13]; Streptococcus sp. Group D 9960, end point after 24 hours, Table 18) was 0.5 µg/mL (≈ 0.405 µM) and the MIC ([13]; Streptococcus sp. Group D 12253F, end point after 24 hours, Table 18) was 0.25 µg/mL (≈ 0.203 µM). It also gave an MIC ([13]; Streptococcus sp. Group D Mx161, end point after 24 hours, Table 18) of 0.25 µg/mL (≈ 0.203 µM) and an MIC ([13]; Streptococcus sp. Group D X66, Table 17) of 1 µg/mL (≈ 0.811 µM).
